Measured values taken from BigSolDB 2.1.

CC(C)(C)c1cc(CCC(=O)OCC(COC(=O)CCc2cc(C(C)(C)C)c(O)c(C(C)(C)C)c2)(COC(=O)CCc2cc(C(C)(C)C)c(O)c(C(C)(C)C)c2)COC(=O)CCc2cc(C(C)(C)C)c(O)c(C(C)(C)C)c2)cc(C(C)(C)C)c1O
solubility (mole fraction)
Details | 293.15 K | 298.15 K | 303.15 K | 308.15 K | 313.15 K | 318.15 K | 323.15 K | 328.15 K | 333.15 K
in ethanol | 0.000302 | 0.000445 | 0.000685 | 0.00105 | 0.0016 | 0.00238 | 0.00351 | 0.0051 | 0.0074
in isopropanol | 0.000148 | 0.000239 | 0.000406 | 0.000631 | 0.000998 | 0.00158 | 0.00252 | 0.00411 | 0.00638
in methanol | 0.000221 | 0.000332 | 0.000544 | 0.000812 | 0.00126 | 0.00203 | 0.00287 | 0.00429 | 0.00726
